Assay results reported in US20030166005A1, “Test system for determining the activity of cyclo-nucleotide-dependent protein kinases and vasp phosphatases” (priority 2000, published 2003).

How the values were obtained:
[1] = target: T1, cGK (Homo sapiens, UniProt Q13976); test: biochemical
T1 sequence (Q13976 1-671): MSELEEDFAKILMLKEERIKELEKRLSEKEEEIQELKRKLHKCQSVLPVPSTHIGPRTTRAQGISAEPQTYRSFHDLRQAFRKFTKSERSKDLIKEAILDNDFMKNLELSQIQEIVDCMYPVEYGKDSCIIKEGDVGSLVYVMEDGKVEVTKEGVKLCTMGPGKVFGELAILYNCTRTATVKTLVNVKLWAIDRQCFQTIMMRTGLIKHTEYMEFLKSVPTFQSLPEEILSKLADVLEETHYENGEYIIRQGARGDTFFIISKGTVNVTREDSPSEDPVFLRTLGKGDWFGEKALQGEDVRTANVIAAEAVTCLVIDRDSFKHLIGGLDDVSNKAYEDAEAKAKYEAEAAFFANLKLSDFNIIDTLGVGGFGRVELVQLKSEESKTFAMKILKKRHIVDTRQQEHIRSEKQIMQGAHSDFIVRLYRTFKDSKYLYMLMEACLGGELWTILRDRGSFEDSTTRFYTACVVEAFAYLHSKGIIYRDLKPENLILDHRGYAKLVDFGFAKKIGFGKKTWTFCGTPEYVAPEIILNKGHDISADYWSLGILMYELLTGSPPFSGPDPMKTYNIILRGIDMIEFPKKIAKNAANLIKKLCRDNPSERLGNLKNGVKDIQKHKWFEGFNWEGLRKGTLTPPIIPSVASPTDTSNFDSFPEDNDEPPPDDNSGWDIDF
Experimental: Instead of carrying out a kinase reaction for the purpose of establishing and optimizing the detection system, a synthetic phosphopeptide (phosphorylated version of the VASP substrate peptide) was used as the “reaction product” and was quantified using a detection mix. In order to ascertain the linear measurement range, different mixtures of unphosphorylated peptide and phosphopeptide were prepared. When so doing, the total concentration of peptide was kept constant at 500 nmol/l. 50 μl of these mixtures were added to the wells of a 96-well microtest plate and in each case treated with 200 μl of a detection mix which contained the following reagents diluted in PBS:
The time-resolved FRET signal, when exciting the europium fluorescence at 340 nm and measuring the emission of the APC fluorescence at 660 nm, was measured, after incubating at 20° C. for 1 hour, using a PerkinElmer Wallac fluorescence-measuring instrument (Victor^2).
After the tubes had been preincubated at 30° C. for 5 minutes, the kinase reaction was started with 50 μmol of ATP/l, with subsequent incubation being at 30° C. All the above-mentioned concentrations are to be understood as meaning final concentrations in a volume of 500 μl. […] The phosphorylated substrate peptide was detected, as described in Example 1, in the wells of a 384-well microtest plate. […]

[2] = target: T1, cGK; test: Influence of DMSO on the enzyme activity in the test system; format: biochemical; settings: for Enzyme activity in cps/min: incubation period 10 min
Experimental: Most substances which are tested in an HTS are preferably dissolved in DMSO. However, many enzymes or test systems are very sensitive to DMSO. In order to determine the influence of DMSO on the test system according to the invention, phosphorylation kinetics, as described in Example 2 (cf. FIG. 2), were carried out in the presence of 0, 5, 10, 15 and 20% DMSO.

EC50 [1] | Enzyme activity in cps/min ([2]; 5 percent by volume of DMSO) | Enzyme activity in cps/min ([2]; 10 percent by volume of DMSO) | Enzyme activity in cps/min ([2]; 15 percent by volume of DMSO) | Enzyme activity in cps/min ([2]; 20 percent by volume of DMSO) | influence on the reaction ([2]; up to 20 percent by volume of DMSO) | SMILES
100 nM | – | – | – | – | – | Nc1nc(=O)c2nc(Sc3ccc(Cl)cc3)n([C@@H]3O[C@@H]4COP(=O)(O)O[C@H]4[C@H]3O)c2[nH]1 [8-pCPT-cGMP]
– | 2282 cps/min | 2253 cps/min | 2218 cps/min | 1988 cps/min | no significant influence | C[S+](C)[O-] [DMSO, dimethyl sulfoxide]
